Results as given in paper PMC10893631, “Receptor-based pharmacophore modeling, molecular docking, synthesis and biological evaluation of novel VEGFR-2, FGFR-1, and BRAF multi-kinase inhibitors” (BMC Chemistry, 2024).

Experiments:
Experiment in all cases: NCI SRB growth inhibition (single dose 10 µM / five-dose)
Format in all cases: cell-based, human
BT-549 = conditions: Homo sapiens; BT-549 (Breast cancer), 10 µM; read-out: GI%
Procedure: (§1) Screening of cytotoxic activity against a panel of sixty human tumor cell lines The selected compounds by NCI were evaluated for their anticancer activity in a two- stage process. […] Then, the output from the single dose screen is reported as a mean graph. […] Assay protocol. […] For a typical screening experiment, cells are inoculated into 96 well microtiter plates in 100 µL at plating densities ranging from 5000 to 40,000 cells/well depending on the doubling time of individual cell lines. […] After 24 h, two plates of each cell line are fixed in situ with TCA, to represent a measurement of the cell population for each cell line at the time of drug addition (Tz). The experimental drugs are solubilized in dimethyl sulfoxide at 400-fold the desired final maximum test concentration and stored frozen prior to use. At the time of drug addition, an aliquot of frozen concentrate is thawed and diluted to twice the desired final maximum test concentration with complete medium containing 50 µg/mL gentamicin. Additional four, 10-fold or ½ log serial dilutions are made to provide a total of five drug concentrations plus control. Aliquots of 100 mL of these different drug dilutions are added to the appropriate microtiter wells already containing […] of medium, resulting in the required final drug concentrations. […] For adherent cells, the assay is terminated by the addition of cold TCA. […] The supernatant is discarded, and the plates are washed five times with tap water and air dried. Sulforhodamine B (SRB) solution ([…]) at 0.4% (w/v) in 1% acetic acid is added to each well, and plates are incubated for 10 min at room temperature. After staining, unbound dye is removed by washing five times with 1% acetic acid and the plates are air dried. […] Using the seven absorbance measurements [time zero, (Tz), control growth, (C), and test growth in the presence of drug at the five concentration levels (Ti)], the percentage growth is calculated at each of the drug concentrations levels. Percentage growth inhibition is calculated as: [(Ti Tz)/(C–Tz)] x 100 for concentrations for which Ti>/=Tz and [(Ti-Tz)/Tz] x 100 for concentrations for which Ti < Tz. Three dose response parameters are calculated for each experimental agent. […] The drug concentration resulting in total growth inhibition (TGI) is calculated from Ti = Tz. […] Values are calculated for each of these three parameters if the level of activity is reached; however, if the effect is not reached or is exceeded, the value for that parameter is expressed as greater or less than the maximum or minimum concentration tested.

CCRF-CEM = conditions: Homo sapiens; CCRF-CEM (Leukemia), 10 µM; read-out: GI%
Procedure: as §1

SK-OV-3 = conditions: Homo sapiens; SK-OV-3 (Ovarian cancer), 10 µM; read-out: GI%
Procedure: as §1

NCI-H460 = conditions: Homo sapiens; NCI-H460 (Non-small cell lung cancer), 10 µM; read-out: GI%
Procedure: as §1

DU-145 = conditions: Homo sapiens; DU-145 (Prostate cancer), 10 µM; read-out: GI%
Procedure: as §1

SF-295 = conditions: Homo sapiens; SF-295 (CNS cancer), 10 µM; read-out: GI%
Procedure: as §1

HT29 = conditions: Homo sapiens, HT-29; HT29 (Colon cancer), 10 µM; read-out: GI%
Procedure: as §1

NCI/ADR-RES = conditions: Homo sapiens; NCI/ADR-RES (Ovarian cancer), 10 µM; read-out: GI%
Procedure: as §1

LOX IMVI = conditions: Homo sapiens; LOX IMVI (Melanoma), 10 µM; read-out: GI%
Procedure: as §1

ACHN = conditions: Homo sapiens; ACHN (Renal cancer), 10 µM; read-out: GI%
Procedure: as §1

M14 = conditions: Homo sapiens; M14 (Melanoma), 10 µM; read-out: GI%
Procedure: as §1

OVCAR-3 = conditions: Homo sapiens; OVCAR-3 (Ovarian cancer), 10 µM; read-out: GI%
Procedure: as §1

COLO 205 = conditions: Homo sapiens; COLO 205 (Colon cancer), 10 µM; read-out: GI%
Procedure: as §1

K-562 = conditions: Homo sapiens, K562; K-562 (Leukemia), 10 µM; read-out: GI%
Procedure: as §1

CAKI-1 = conditions: Homo sapiens; CAKI-1 (Renal cancer), 10 µM; read-out: GI%
Procedure: as §1

IGROV1 = conditions: Homo sapiens, IGROV-1; IGROV1 (Ovarian cancer), 10 µM; read-out: GI%
Procedure: as §1

NCI-H522 = conditions: Homo sapiens; NCI-H522 (Non-small cell lung cancer), 10 µM; read-out: GI%
Procedure: as §1

OVCAR-8 = conditions: Homo sapiens; OVCAR-8 (Ovarian cancer), 10 µM; read-out: GI%
Procedure: as §1

OVCAR-4 = conditions: Homo sapiens; OVCAR-4 (Ovarian cancer), 10 µM; read-out: GI%
Procedure: as §1

SR = conditions: Homo sapiens; SR (Leukemia), 10 µM; read-out: GI%
Procedure: as §1

MDA-MB-435 = conditions: Homo sapiens; MDA-MB-435 (Melanoma), 10 µM; read-out: GI%
Procedure: as §1

A549/ATCC = conditions: Homo sapiens; A549/ATCC (Non-small cell lung cancer), 10 µM; read-out: GI%
Procedure: as §1

SK-MEL-2 = conditions: Homo sapiens; SK-MEL-2 (Melanoma), 10 µM; read-out: GI%
Procedure: as §1

NCI-H322M = conditions: Homo sapiens; NCI-H322M (Non-small cell lung cancer), 10 µM; read-out: GI%
Procedure: as §1

EKVX = conditions: Homo sapiens; EKVX (Non-small cell lung cancer), 10 µM; read-out: GI%
Procedure: as §1

Compound | inhibition at 10 µM (BT-549) | inhibition at 10 µM (CCRF-CEM) | inhibition at 10 µM (SK-OV-3) | inhibition at 10 µM (NCI-H460) | inhibition at 10 µM (DU-145) | inhibition at 10 µM (SF-295) | inhibition at 10 µM (HT29) | inhibition at 10 µM (NCI/ADR-RES) | inhibition at 10 µM (LOX IMVI) | inhibition at 10 µM (ACHN) | inhibition at 10 µM (M14) | inhibition at 10 µM (OVCAR-3) | inhibition at 10 µM (COLO 205) | inhibition at 10 µM (K-562) | inhibition at 10 µM (CAKI-1) | inhibition at 10 µM (IGROV1) | inhibition at 10 µM (NCI-H522) | inhibition at 10 µM (OVCAR-8) | inhibition at 10 µM (OVCAR-4) | inhibition at 10 µM (SR) | also measured
COc1ccc(C=NNC(=O)c2ccc3[nH]c(-c4ccccc4)nc3c2)cc1O [8e, N'-(3-Hydroxy-4-methoxybenzylidene)-2-phenyl-1H-benzo[d]imidazole-5-carbohydrazide] | < 5% | 35.9% | 56.3% | < 5% | < 5% | 10.9% | 95.8% | < 5% | < 5% | < 5% | 19.7% | 7.25% | 35.4% | 26.2% | 17.6% | 22% | 29.4% | 25.2% | < 5% | 44.1% | inhibition at 10 µM (MDA-MB-435): 30.4%; inhibition at 10 µM (A549/ATCC): < 5%; inhibition at 10 µM (SK-MEL-2): 8.51%; inhibition at 10 µM (NCI-H322M): < 5%; inhibition at 10 µM (EKVX): 19.2%
COc1ccc(-c2nc3cc(C(=O)NN=Cc4cccc(O)c4)ccc3[nH]2)cc1 [8i, N'-(3-Hydroxybenzylidene)-2-(4-methoxyphenyl)-1H-benzo[d]imidazole-5-carbohydrazide] | 32.7% | 80.8% | 54% | 5.05% | 14% | 22% | 74.5% | < 5% | 26.1% | < 5% | 39.1% | 8.04% | 32.4% | 60.6% | 5.16% | 11.2% | 43.4% | 38.1% | 27.1% | 81.9% | inhibition at 10 µM (MDA-MB-435): 63.8%; inhibition at 10 µM (A549/ATCC): 11.2%; inhibition at 10 µM (SK-MEL-2): 37.5%; inhibition at 10 µM (NCI-H322M): 18.3%; inhibition at 10 µM (EKVX): 23.4%
COc1ccc(-c2nc3cc(C(=O)NN=Cc4cc(OC)ccc4OC)ccc3[nH]2)cc1 [8m, N'-(2,5-Dimethoxybenzylidene)-2-(4-methoxyphenyl)-1H-benzo[d]imidazole-5-carbohydrazide] | 17.2% | 45.9% | < 5% | < 5% | < 5% | 19.9% | 25.4% | < 5% | 18.8% | 8.59% | < 5% | < 5% | < 5% | 22.8% | < 5% | < 5% | 21.3% | 23.6% | 8.31% | 28.5% | inhibition at 10 µM (MDA-MB-435): < 5%; inhibition at 10 µM (A549/ATCC): 13.7%; inhibition at 10 µM (SK-MEL-2): 11.1%; inhibition at 10 µM (NCI-H322M): < 5%; inhibition at 10 µM (EKVX): 10.6%
O=C(NN=Cc1cccc(O)c1)c1ccc2[nH]c(-c3ccc(Cl)cc3)nc2c1 [8p, 2-(4-Chlorophenyl)-N'-(3-hydroxybenzylidene)-1H-benzo[d]imidazole-5-carbohydrazide] | < 5% | 71.9% | 36.2% | 56.6% | < 5% | 11.8% | 19.9% | < 5% | 14.7% | < 5% | 25.4% | < 5% | 34.6% | 49.9% | < 5% | 5.71% | 55.8% | 19% | 15.7% | 26.4% | inhibition at 10 µM (MDA-MB-435): 15.2%; inhibition at 10 µM (A549/ATCC): 7.53%; inhibition at 10 µM (SK-MEL-2): 24%; inhibition at 10 µM (NCI-H322M): < 5%; inhibition at 10 µM (EKVX): 7.59%
COc1ccc(OC)c(C=NNC(=O)c2ccc3[nH]c(-c4ccc(Cl)cc4)nc3c2)c1 [8t, 2-(4-Chlorophenyl)-N'-(2,5-dimethoxybenzylidene)-1H-benzo[d]imidazole-5-carbohydrazide] | 25.7% | 56.1% | 15.1% | 17.5% | 52% | 51.9% | 20.3% | 11.2% | 34.6% | 53.1% | 30.9% | 10.8% | 18.3% | 52.9% | 38.4% | 7.82% | 40.9% | 17.2% | 38.9% | 31.4% | inhibition at 10 µM (MDA-MB-435): 14.3%; inhibition at 10 µM (A549/ATCC): 8.76%; inhibition at 10 µM (SK-MEL-2): < 5%; inhibition at 10 µM (NCI-H322M): 28.9%; inhibition at 10 µM (EKVX): 42.5%
